According to patent publication US20060205642A1, “Oral methods of treatment using proANF peptides” (priority 2005, published 2006):
Entries after “also recorded” stand apart in the source; their conditions may differ.

Assays:
porcine aortas = experiment: Vasodilation of porcine aortic strips preconstricted with 0.3 micromolar phenylephrine
Description: 30 Kg pigs are sacrificed, and aortic strips are harvested. The strips are attached to F-60 transducer (Narco-BioSystems, Houston, Tex.) and attached to a physiography (Narco-BioSystems) while being submerged in a muscle tissue bath comprising a Krebs Ringer solution at 37° C., with 95% O2-5% CO2, bubbled through the bath. Percentage vasodilation is measured versus time after preconstriction with 0.3 micromolar phenylephrine. […] (Vesely et al., Biochem. Biophys. Res. Commun. 148:1540-1548, 1987).

[1] = test system: particulate guanylate cyclase; experiment: Cyclic GMP / particulate guanylate cyclase activation in cultured smooth muscle cells and porcine aorta; assay type: cell-based; conditions: for concentration of maximal activation of guanylate cyclase activity / EC50: porcine aorta and isolated smooth muscle cells; for EC50: read-out: half maximal activation (ED5o) of guanylate cyclase
[2] = Rat clearance model (diuresis and salt excretion); assay type: in vivo, Munich-Wistar rats; conditions: for FENa, fractional excretion of sodium / UNa, urinary sodium / UNaV, urinary sodium excretion rate / V, urine flow rate: means ± SE
Description: The same three peptides and ANF from Example I are tested using the rat clearance model. Six control rats and six experimental Munich-Wistar rats, each weighing 150-200 grams, are used for each peptide, with catheters being placed in both jugular veins and in the femoral artery. The ureters are cannulated for simultaneous urine collections with femoral artery blood collections.
After inserting the catheters, a stabilization of one hour is allowed. A 10 μg/kg bolus of each of the respective human sequences of the peptides is given via the jugular vein to six experimental rats followed by a sustaining infusion of 0.1 μg/kg/min for 60 minutes. Blood and urine samples are collected at 20 minute intervals during this 60 minute infusion. In both the control and experimental animals, hematocrits and plasma sodium values remained at the same levels pre- and post-infusion while blood pressure decreased with each of these peptides (see Attachment B).

[3] = test system: particulate guanylate cyclase; experiment: Particulate guanylate cyclase activity in the kidney; assay type: biochemical; conditions: 1 μM; whole kidney homogenates, renal cortical and medullary membranes, isolated distal nephrons
Description: Testing is also carried out to determine biologic effects of these peptides by measuring their effects on particulate guanylate activity in the kidney.

[4] = Infusion into healthy human subjects; assay type: in vivo; conditions: healthy humans; for potassium excretion: 100 ng/kg body wt; for increase in urine volume (in words): 100 ng/kg body wt per minute for 1 hour i.v., n=6, ANOVA; for sodium excretion (in words): 100 ng/kg body wt per minute for 60 minutes, vs baseline; for systolic and diastolic blood pressures: 100 ng/kg body wt per minute i.v. for 60 min, n=6
Description: Infusion of these peptides into healthy human subjects was performed as follows: Human pro-ANF 1-30, pro-ANF 31-67, and pro-ANF 79-98, and hANF (i.e., pro-ANF 99-126, were synthesized by Peninsula Laboratories (Belmont, Calif.). High pressure liquid chromatography (HPLC) analysis was performed on a sample of each of the four peptides to ensure purity. The peptides were dissolved in a sterile 0.9% saline solution to a concentration of 100 μg/ml and dispensed in 2 and 5 ml aliquots into sealed sterile vials. At the time of dispensing, randomly selected vials were tested for pyrogens and sterility. Prior to labeling the vials, the actual peptide content of the dispensed solution were determined by direct radioimmunoassay to account for any possible absorption of the respective peptides to the walls of the vials. All vials were then stored at −80° C. until thawed for individual study.
Normal healthy subjects were chosen on the basis of age (between 20 and 50 years), physical examination and biochemical screenings. The subjects consumed their normal diets prior to testing. The subjects fasted overnight and were tested in the morning in the seated position. Intravenous catheters were placed bilaterally for the administration of pro-hANF 1-30, pro-hANF 31-67, pro-hANF 79-98 and hANF (pro-hANF 99-126) and for blood sampling. After completion of a 45-minute equilibration period, there were three […] phases of the study: baseline, experimental infusion (60 minutes) and recovery (3 hours). The baseline phase consisted of two 30 minute urine collection periods, the experimental phase consisted of three 20 minute urine and plasma collection periods, and the recovery phase consisted of two 30 minute urine and plasma collection periods each hour for three hours post-infusion. Urine output was replaced on a milliliter per milliliter basis throughout the study by administering oral water or orange juice. Urine samples were obtained by voiding at the designated collection periods.
The 36 subjects were divided into 6 groups. One group (i.e., the control group) received a placebo infusion of 0.9% sodium chloride during the experimental infusion phase. […] The four remaining groups of six subjects each received human pro-hANF 1-30, pro-hANF 31-67, pro-hANF 79-98 and HANF. The four groups received the peptides by continuous infusion at the rate of 0.1 μg/kg per minute. The volume administered per hour during the experimental infusion phase was 10 ml for all four peptides and the placebo. All infusions were given by a constant-rate infusion pump, with the final concentrations of prohANFs adjusted for the subjects' body weight. The subjects heart rate and cuff blood pressure were taken at 5 minute intervals throughout the study. The excreted urine was analyzed for sodium concentration.

[5] = Infusion into human subjects with Class III NYHA congestive heart failure; assay type: in vivo, humans; conditions: for enhancement of sodium excretion: CHF subjects, 100 ng/kg body weight/min for 60 minutes
Description: Human proANF's 1-30, 31-67, 79-98, and 99-126 (i.e., ANF) were infused into human subjects with Class III New York Heart Association congestive heart failure (CHF). An identical protocol to that used in example V where these peptides were infused into healthy human subjects was utilized. (See Attachment C and F for a detailed description of this protocol). The human subjects with congestive heart failure received an identical dose (0.1 μg/kg body wt/minute for 60 minutes) that the healthy human subjects received. […] This striking urine output secondary to proANF 31-67 was significant at P<0.0001 compared to the pre-infusion output of the congestive heart failure subjects (n=6).

[6] = test system: prostaglandin E2 (PGE2) synthesis; experiment: Prostaglandin E2 synthesis (FIG. 8); assay type: biochemical; conditions: n=6, ANOVA and Duncan's MRT
[7] = test system: renal medullary Na+-K+-ATPase; experiment: Inhibition of renal medullary Na+-K+-ATPase activity (FIG. 9); assay type: biochemical; conditions: for inhibition of renal medullary Na+-K+-ATPase activity: 10^-11 M, n=6, ANOVA
Text: FIG. 9. Inhibition of renal medullary Na+-K+-ATPase activity by proANF 79-98 (kaliuretic peptide), proANF 1-30 (long acting natriuretic peptide), proANF 31-67 (vessel dilator), and angiotensin II at their […] concentrations.

[8] = molecular target: particulate guanylate cyclase of porcine aorta and cultured smooth muscle cells (porcine)
[9] = A, control period (before peptide)
[10] = B, first 60-minute experiment period, 10 μg/kg bolus then 0.1 μg/kg/min via jugular vein
[11] = B, first 60-minute experiment period, 10 μg/kg bolus then 0.1 μg/kg/min
[12] = C, second 60-minute experimental period, 10 μg/kg bolus then 0.1 μg/kg/min
[13] = C, second 60-minute experimental period

## H-SSDRSALLKSKLRALLTAPR-OH [proANF 79-98]
Porcine aortas
  increase in cyclic GMP levels over baseline levels associated with vasodilation: four-to-five fold
[1]
  cyclic GMP levels in cultured smooth muscle cells: increase cyclic GMP levels
  concentration of maximal activation of guanylate cyclase activity: about 1 μM
  EC50: ~10 nM
[2]; [9]
  FENa, fractional excretion of sodium: 0.030 ± 0.024%
  UNa, urinary sodium: 42.27 ± 24.68 meq/1
  UNaV, urinary sodium excretion rate: 90.88 ± 77.76 μeq · min^−1 · g kidney wt^−1
  V, urine flow rate: 2.62 ± 0.70 μl · min^−1 · g kidney wt^−1
[2]; [10]
  V, urine flow rate: 4.75 ± 1.57 μl · min^−1 · g kidney wt^−1
[2]; [11]
  FENa, fractional excretion of sodium: 0.200 ± 0.152%
  UNa, urinary sodium: 63.30 ± 22.11 meq/1
  UNaV, urinary sodium excretion rate: 363.98 ± 261.85 μeq · min^−1 · g kidney wt^−1
[2]; [12]
  V, urine flow rate: 5.16 ± 1.04 μl · min^−1 · g kidney wt^−1
[2]; [13]
  FENa, fractional excretion of sodium: 0.368 ± 0.273%
  UNa, urinary sodium: 92.53 ± 29.17 meq/1
  UNaV, urinary sodium excretion rate: 564.22 ± 315.48 μeq · min^−1 · g kidney wt^−1
[2]; rat clearance model
  potassium excretion: very significant stimulator of potassium excretion
  sodium excretion (in words): does not significantly increase sodium excretion
[3]
  particulate guanylate cyclase activity: enhance
[4]
  potassium excretion: significant (P<0.05)
  increase in urine volume (in words): significant
  systolic and diastolic blood pressures: significant
[4]; listed as ProANF 79-98
  sodium excretion (in words): does not have natriuretic effects in healthy humans
  potassium excretion: strongest stimulator of potassium excretion of any of the atrial peptides; also recorded: significant (P<0.01) enhancer of potassium excretion
[4]; infusion
  increase in urine flow: 2 fold
[5]; CHF patients
  hypotension: None became hypotensive
[5]
  enhancement of sodium excretion: 3 fold
[5]; NYHA class III CHF, 100 ng/kg body weight/min i.v. for 60 minutes, P<0.001
  increase of urine flow (maximal): 4 fold
[5]; diuretic and natriuretic effects
  effects in persons with CHF compared to healthy individuals: not blunted in persons with CHF but rather are increased compared to healthy individuals
[6]
  prostaglandin E2 (PGE2) synthesis: increase prostaglandin E2 (PGE2) synthesis
[7]
  inhibition of renal medullary Na+-K+-ATPase activity: significant at P<0.01

## human atrial natriuretic factor (ANF) (peptide)
[8]
  half maximal activation (ED50) of guanylate cyclase activity: 10 nM

## CC[C@H](C)[C@@H]1NC(=O)[C@H](CCCNC(=N)N)NC(=O)[C@H](CC(=O)O)NC(=O)[C@H](CCSC)NC(=O)[C@H](CCCNC(=N)N)NC(=O)CNC(=O)CNC(=O)[C@H](Cc2ccccc2)NC(=O)[C@@H](NC(=O)[C@H](CO)NC(=O)[C@H](CO)NC(=O)[C@H](CCCNC(=N)N)NC(=O)[C@H](CCCNC(=N)N)NC(=O)[C@H](CC(C)C)NC(=O)[C@@H](N)CO)CSSC[C@@H](C(=O)N[C@@H](CC(N)=O)C(=O)N[C@@H](CO)C(=O)N[C@@H](Cc2ccccc2)C(=O)N[C@@H](CCCNC(=N)N)C(=O)N[C@@H](Cc2ccc(O)cc2)C(=O)O)NC(=O)CNC(=O)[C@H](CC(C)C)NC(=O)CNC(=O)[C@H](CO)NC(=O)[C@H](CCC(N)=O)NC(=O)[C@H](C)NC(=O)CNC1=O [ANF, reference compound]
[5]; human, in vivo
  hypotension: became hypotensive

## COc1ccc2cc([C@H](C)C(=O)O)ccc2c1 [Naproxen, reference compound]
[7]; 0.5 mM
  blockade of the peptides' effects on renal medullary Na+-K+-ATPase: completely blocked

## H-NPMYNAVSNADLMDFKNLLDHLEEKMPLED-OH [proANF 1-30]
Porcine aortas
  increase in cyclic GMP levels over baseline levels associated with vasodilation: four-to-five fold
[1]
  cyclic GMP levels in cultured smooth muscle cells: increase cyclic GMP levels
  concentration of maximal activation of guanylate cyclase activity: about 1 μM
  EC50: ~10 nM
[2]; [9]
  FENa, fractional excretion of sodium: 0.023 ± 0.002%
  UNa, urinary sodium: 34.13 ± 10.98 meq/1
  UNaV, urinary sodium excretion rate: 36.37 ± 8.09 μeq · min^−1 · g kidney wt^−1
  V, urine flow rate: 1.83 ± 0.27 μl · min^−1 · g kidney wt^−1
[2]; [10]
  V, urine flow rate: 3.41 ± 0.48 μl · min^−1 · g kidney wt^−1
[2]; [11]
  FENa, fractional excretion of sodium: 0.241 ± 0.101%
  UNa, urinary sodium: 64.83 ± 12.93 meq/1
  UNaV, urinary sodium excretion rate: 224.30 ± 60.34 μeq · min^−1 · g kidney wt^−1
[2]; [12]
  V, urine flow rate: 4.31 ± 0.84 μl · min^−1 · g kidney wt^−1
[2]; [13]
  FENa, fractional excretion of sodium: 0.285 ± 0.094%
  UNa, urinary sodium: 89.50 ± 19.82 meq/1
  UNaV, urinary sodium excretion rate: 384.98 ± 124.39 μeq · min^−1 · g kidney wt^−1
[3]
  particulate guanylate cyclase activity: enhance
[4]
  duration of sodium excreting effects compared to ANF: significantly (P<0.001) prolonged compared to ANF
  potassium excretion: significant (P<0.05)
  increase in urine volume (in words): significant
  sodium excretion (in words): significantly (P<0.05) increased
  systolic and diastolic blood pressures: significant
[4]; listed as ProANF 1-30
  duration of sodium excreting effects compared to ANF: last significantly (P<0.001) longer than ANF's effects
[5]; CHF individuals
  increase of fractional excretion of sodium: 3 fold
[5]
  enhancement of sodium excretion: three-to-eight fold
[5]; human, in vivo
  hypotension: None became hypotensive
[5]; humans with congestive heart failure, listed as Pro ANF's 1-30
  time after stopping infusion for which diuresis / urine flow is still significantly elevated (P<0.01): ≥ 3 h
[6]
  prostaglandin E2 (PGE2) synthesis: increase prostaglandin E2 (PGE2) synthesis
[7]
  inhibition of renal medullary Na+-K+-ATPase activity: significant at P<0.01

## angiotensin II [reference compound]
[7]
  inhibition of renal medullary Na+-K+-ATPase activity: significant at P<0.01

## H-NPMYNAVSNADLMDFKNLLDHLEEKMPLED-OH [human pro-ANF 1-30]
[8]
  half maximal activation (ED50) of guanylate cyclase activity: 10 nM

## H-EVVPPQVLSEPNEEAGAALSPLPEVPPWTGEVSPAQR-OH [human pro-ANF 31-67]
[8]
  half maximal activation (ED50) of guanylate cyclase activity: 10 nM

## H-SSDRSALLKSKLRALLTAPR-OH [human pro-ANF 79-98]
[8]
  half maximal activation (ED50) of guanylate cyclase activity: 10 nM
